{"source": "patent US7666901B2", "about": "“Analogs of 17-hydroxywortmannin as PI3K inhibitors” (Wyeth, priority 2004, dated 2010)", "key": {"[1]": {"system": "HER2/Neu-overexpressing MDA361-DYT2 breast tumor cells", "assay": "Tumor cell growth assay, HKI-272 and combination, MDA361-DYT2", "assay_type": "cell-based, human", "settings": "compound 4 at 0.1 μg/ml; MDA361-DYT2", "procedure": "(§1) Human tumor cell are all obtained from ATCC, and are cultured using standard cell culture methods. Cells are plated in 96-well culture plates at 1000 to 3000 cells per well. One day following plating, cells are treated with various doses of PI3K inhibitor Compound 4 or Compound 5 alone or with a low constant dose of MEK inhibitor 2-(2-chloro-4-iodoanilino)-N-(cycloprorylmethoxy-3,4-difluobenzamide) (1 μg/ml) or UO126 (5 μg/ml). UO126 is also known as 1,4-diamino-2,3-dicyano-1,4-bis[2-aminophenylthio]butadiene. In some experiments, cells are treated alone with various doses of the MEK inhibitor (2-(2-chloro-4-iodoanilino)-N-(cycloprorylmethoxy-3,4-difluobenzamide)), or HER2/neu inhibitor HKI-272, or mTOR inhibitor CCI-779, or with a low constant dose of Compound 4 (0.1 μg/ml). […] Three days after drug treatment, viable cell densities are determined by metabolic conversion (by viable cells) of the dye MTS, an established cell proliferation assay. […] The MTS assay results are read in a 96-well plate reader by measuring absorbance at 490 nm. The effect of each treatment is calculated as percent of control growth relative to the vehicle DMSO-treated cells grown in the same culture plate. […]"}, "[2]": {"system": "colon carcinoma, NSCLC, DU145 and MDA231 cell lines", "assay": "Tumor cell growth assay, combination with MEK inhibitors, tumor line panel", "assay_type": "cell-based, human", "settings": "HCT116, HT29, SW620, SW480, LS-174T, Caco2, Lovo, A549, H157, DU145, MDA231", "procedure": "as §1"}, "HCT116 colon tumor cells": {"system": "HCT116 colon tumor cells", "assay": "Tumor cell growth assay, combination with MEK inhibitors, HCT116", "assay_type": "cell-based, human", "settings": "MEK inhibitor at low constant dose", "procedure": "as §1"}, "[3]": {"system": "MDA435 (human breast adenocarcinoma)", "assay": "Cell proliferation (MTS) assay, MDA435", "assay_type": "cell-based", "settings": "three days treatment", "method_in_brief": "(§2)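 Cells plated at about 3000 per well in RPMI-1640/10% FBS were dosed with compound one day later. Viability was read by MTS conversion (absorbance 490 nm, 1–2 h) three days after treatment began. Effect is expressed as percent of vehicle-treated growth on the same plate.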"}, "[4]": {"system": "LNCaP (human prostate carcinoma)", "assay": "Cell proliferation (MTS) assay, LNCaP", "assay_type": "cell-based", "settings": "three days treatment", "method_in_brief": "as §2"}, "[5]": {"system": "non-small cell lung cancer (NSCLC) cell lines", "assay": "Tumor cell growth assay, combination with MEK inhibitor, NSCLC", "assay_type": "cell-based, human", "procedure": "as §1"}}}
{"smiles": "COC[C@H]1OC(=O)/C(=C/N(CCO)C(C)(C)C)C2=C(O)C(=O)C3=C([C@H](OC(C)=O)C[C@@]4(C)C3CC[C@@H]4O)[C@]21C", "note": "(stereo partly drawn) [Compound 4, (1E,4S,4aR,5R,6aS,7S)-1-{[tert-butyl(2-hydroxyethyl)amino]methylene}-7,11-dihydroxy-4-(methoxymethyl)-4a,6a-dimethyl-2,10-dioxo-1,2,4,4a,5,6,6a,7,8,9,9a,10-dodecahydroindeno[4,5-h]isochromen-5-yl acetate]", "values": [{"measurement": "growth inhibition in combination with HER2/neu inhibitor HKI-272", "setting": "[1]", "result": "synergistically inhibited growth"}, {"measurement": "growth inhibition in combination with MEK inhibitors UO126 and 2-(2-chloro-4-iodoanilino)-N-(cycloprorylmethoxy-3,4-difluobenzamide)", "setting": "[2]", "result": "broad synergistic growth inhibition"}, {"measurement": "growth inhibition in combination with MEK inhibitors", "setting": "HCT116 colon tumor cells", "result": "synergistically inhibited growth"}, {"measurement": "MDA435 IC50", "setting": "[3]; Table 1", "result": 6, "unit": "µg/mL"}, {"measurement": "MDA435 IC50", "setting": "[3]; Table 2", "result": 3.5, "unit": "µg/mL"}, {"measurement": "LNCaP IC50", "setting": "[4]; Table 1", "result": 0.09, "unit": "µg/mL"}, {"measurement": "LNCaP IC50", "setting": "[4]; Table 2", "result": 0.05, "unit": "µg/mL"}, {"measurement": "growth inhibition in combination with MEK inhibitor 2-(2-chloro-4-iodoanilino)-N-(cycloprorylmethoxy-3,4-difluobenzamide)", "setting": "[5]", "result": "synergistic growth inhibition"}]}
